# In patent US12673961B2 (Agios Pharmaceuticals, Inc., priority 2022, dated 2026):
# Molecular target: T1, human PAH with the R408W mutation (Homo sapiens, UniProt P00439, R408W)
# T1 construct: expressed in transfected cells
# T1 sequence (P00439 1-452 R408W): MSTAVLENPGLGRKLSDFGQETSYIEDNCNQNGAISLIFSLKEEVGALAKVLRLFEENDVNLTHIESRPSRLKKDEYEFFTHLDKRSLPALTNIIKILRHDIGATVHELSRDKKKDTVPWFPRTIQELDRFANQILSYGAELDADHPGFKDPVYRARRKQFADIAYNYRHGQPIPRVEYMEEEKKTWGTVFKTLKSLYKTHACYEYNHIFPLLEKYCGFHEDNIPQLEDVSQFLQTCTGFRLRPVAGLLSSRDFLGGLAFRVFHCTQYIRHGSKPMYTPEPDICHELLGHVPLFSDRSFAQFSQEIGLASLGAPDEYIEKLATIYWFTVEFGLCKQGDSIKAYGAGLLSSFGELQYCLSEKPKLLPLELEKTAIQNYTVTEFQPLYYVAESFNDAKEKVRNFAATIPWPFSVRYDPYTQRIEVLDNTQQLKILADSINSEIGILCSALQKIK
# Experiment: Cell Based Phenylalanine Flux Assay;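 also: Ten-point dose curve from 2-fold serial dilutions, run in duplicate at 0.5% DMSO final, tracer step used 20 µM sepiapterin and 800 µM labeled phenylalanine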
# Details: A375 cells expressing human R408W PAH; 24 hrs with compound, then sepiapterin and 13C9,15N-Phenylalanine for 4 hours; 13C-Tyrosine by LC-MS; average where tested multiple times; read-out: AC50
row,Compound,AC50 [µM]
1,"Cc1c(-c2nnc(C(=O)N3CCc4[nH]cnc4[C@@H]3c3cc4c(C(C)C)cccn4n3)o2)cnn1C [Example 1949, (R)-(5-(1,5-dimethyl-1H-pyrazol-4-yl)-1,3,4-oxadiazol-2-yl)(4-(4-isopropylpyrazolo [1,5-a]pyridin-2-yl)-1,4,6,7-tetrahydro-5H-imidazo[4,5-c]pyridin-5-yl)methanone]",1 to 5
2,"Fc1ccc(-c2nnc(N3CCc4[nH]cnc4[C@@H]3c3cc4c(F)cccn4n3)o2)cc1 [Example 1952, (R)-2-(4-fluorophenyl)-5-(4-(4-fluoropyrazolo[1,5-a]pyridin-2-yl)-1,4,6,7-tetrahydro-5H-imidazo[4,5-c]pyridin-5-yl)-1,3,4-oxadiazole]",> 5
3,"Fc1ccc(-c2nnc(N3CCc4[nH]cnc4[C@H]3c3cc4c(F)cccn4n3)o2)cc1 [Example 1953, (S)-2-(4-fluorophenyl)-5-(4-(4-fluoropyrazolo[1,5-a]pyridin-2-yl)-1,4,6,7-tetrahydro-5H-imidazo[4,5-c]pyridin-5-yl)-1,3,4-oxadiazole]",< 0.5
4,"Cc1cccn2nc([C@H]3c4nc[nH]c4CCN3C(=O)c3cnc(-c4cnn(C)c4C)o3)cc12 [Example 1963, (R)-(2-(1,5-dimethyl-1H-pyrazol-4-yl)oxazol-5-yl)(4-(4-methylpyrazolo[1,5-a]pyridin-2-yl)-1,4,6,7-tetrahydro-5H-imidazo[4,5-c]pyridin-5-yl)methanone]",> 5
5,"Cc1cccn2nc([C@@H]3c4nc[nH]c4CCN3C(=O)c3nnc(-c4ccccn4)s3)cc12 [Example 1970, (S)-(4-(4-methylpyrazolo [1,5-a]pyridin-2-yl)-1,4,6,7-tetrahydro-5H-imidazo[4,5-c]pyridin-5-yl)(5-(pyridin-2-yl)-1,3,4-thiadiazol-2-yl) methanone]",< 0.5
6,"Cc1cccn2nc([C@H]3c4nc[nH]c4CCN3C(=O)c3nnc(-c4ccccn4)s3)cc12 [Example 1971, (R)-(4-(4-methylpyrazolo [1,5-a]pyridin-2-yl)-1,4,6,7-tetrahydro-5H-imidazo[4,5-c]pyridin-5-yl)(5-(pyridin-2-yl)-1,3,4-thiadiazol-2-yl) methanone]",> 5
7,"CC(C)c1cccn2nc([C@H]3c4nc[nH]c4CCN3C(=O)c3nnc(-c4ccn(C(F)F)n4)o3)cc12 [Example 1982, (R)-(5-(1-(difluoromethyl)-1H-pyrazol-3-yl)-1,3,4-oxadiazol-2-yl)(4-(4-isopropylpyrazolo[1,5-a]pyridin-2-yl)-1,4,6,7-tetrahydro-5H-imidazo[4,5-c]pyridin-5-yl)methanone]",> 5
8,"CC(C)c1cccn2nc([C@@H]3c4nc[nH]c4CCN3C(=O)c3nnc(-c4ccn(C(F)F)n4)o3)cc12 [Example 1983, (S)-(5-(1-(difluoromethyl)-1H-pyrazol-3-yl)-1,3,4-oxadiazol-2-yl)(4-(4-isopropylpyrazolo[1,5-a]pyridin-2-yl)-1,4,6,7-tetrahydro-5H-imidazo[4,5-c]pyridin-5-yl)methanone]",< 0.5
9,"Cc1cccn2nc([C@H]3c4nc[nH]c4CCN3C(=O)c3nc4ccccc4o3)cc12 [Example 2021, (R)-benzo[d]oxazol-2-yl (4-(4-methylpyrazolo[1,5-a]pyridin-2-yl)-1,4,6,7-tetrahydro-5H-imidazo[4,5-c]pyridin-5-yl)methanone]",> 5
10,"O=C(c1cnc(-c2ccccn2)o1)N1CCc2[nH]cnc2[C@@H]1c1cc2c(C(F)F)cccn2n1 [Example 2035, (R)-(4-(4-(difluoromethyl)pyrazolo[1,5-a]pyridin-2-yl)-1,4,6,7-tetrahydro-5H-imidazo [4,5-c]pyridin-5-yl)(2-(pyridin-2-yl)oxazol-5-yl)methanone]",> 5
11,"Fc1cccc(F)c1-c1nnc(N2CCc3[nH]cnc3[C@@H]2c2cc3c(Cl)cccn3n2)o1 [Example 2062, (R)-2-(4-(4-chloropyrazolo [1,5-a]pyridin-2-yl)-1,4,6,7-tetrahydro-5H-imidazo [4,5-c]pyridin-5-yl)-5-(2,6-difluorophenyl)-1,3,4-oxadiazole]",> 5
12,"Cc1c(-c2ncc(C(=O)N3CCc4[nH]cnc4[C@@H]3c3cc4c(C(F)F)cccn4n3)o2)cnn1C [Example 2069, (R)-(4-(4-(difluoromethyl)pyrazolo[1,5-a]pyridin-2-yl)-1,4,6,7-tetrahydro-5H-imidazo [4,5-c]pyridin-5-yl)(2-(1,5-dimethyl-1H-pyrazol-4-yl)oxazol-5-yl)methanone]",> 5
13,"Cc1cccc2cc([C@H]3c4nc[nH]c4CCN3C(=O)c3ocnc3C3CC3)nn12 [Example 2071, (R)-(4-cyclopropyloxazol-5-yl)(4-(7-methylpyrazolo[1,5-a]pyridin-2-yl)-1,4,6,7-tetrahydro-5H-imidazo[4,5-c]pyridin-5-yl)methanone]",> 5
14,Cc1cccn2nc([C@H]3c4nc[nH]c4CCN3C(=O)c3oc(-c4cnn(C)c4)nc3C3CC3)cc12 [Example 2075],1 to 5
15,"Fc1ccc(-c2nnc(N3CCc4[nH]cnc4[C@@H]3c3cc4cccc(Cl)n4n3)o2)cc1 [Example 2087, (R)-2-(4-(7-chloropyrazolo [1,5-a]pyridin-2-yl)-1,4,6,7-tetrahydro-5H-imidazo [4,5-c]pyridin-5-yl)-5-(4-fluorophenyl)-1,3,4-oxadiazole]",> 5

# The next lines start with the values.
row,AC50 [µM],Compound
1,< 0.5,"Cc1cccn2nc([C@@H]3c4nc[nH]c4CCN3C(=O)c3cnc(C(C)(C)F)o3)cc12 [Example 1959, (S)-(2-(2-fluoropropan-2-yl)oxazol-5-yl)(4-(4-methylpyrazolo[1,5-a]pyridin-2-yl)-1,4,6,7-tetrahydro-5H-imidazo[4,5-c]pyridin-5-yl)methanone]"
2,< 0.5,"O=C(c1nnc(-c2ccccn2)s1)N1CCc2[nH]cnc2[C@H]1c1cc2c(F)cccn2n1 [Example 1968, (S)-(4-(4-fluoropyrazolo [1,5-a]pyridin-2-yl)-1,4,6,7-tetrahydro-5H-imidazo[4,5-c]pyridin-5-yl)(5-(pyridin-2-yl)-1,3,4-thiadiazol-2-yl) methanone]"
3,> 5,"O=C(c1nnc(-c2ccccn2)s1)N1CCc2[nH]cnc2[C@@H]1c1cc2c(F)cccn2n1 [Example 1969, (R)-(4-(4-fluoropyrazolo [1,5-a]pyridin-2-yl)-1,4,6,7-tetrahydro-5H-imidazo[4,5-c]pyridin-5-yl)(5-(pyridin-2-yl)-1,3,4-thiadiazol-2-yl) methanone]"
4,1 to 5,"Cc1cccn2nc([C@H]3c4nc[nH]c4CCN3C(=O)c3nnc(C4CC4)s3)cc12 [Example 1996, (R)-(5-cyclopropyl-1,3,4-thiadiazol-2-yl)(4-(4-methylpyrazolo[1,5-a]pyridin-2-yl)-1,4,6,7-tetrahydro-5H-imidazo[4,5-c]pyridin-5-yl)methanone]"
5,1 to 5,"O=C(c1ocnc1C1CC1)N1CCc2[nH]cnc2[C@@H]1c1cc2c(C(F)(F)F)cccn2n1 [Example 2015, (R)-(4-cyclopropyloxazol-5-yl)(4-(4-(trifluoromethyl)pyrazolo [1,5-a]pyridin-2-yl)-1,4,6,7-tetrahydro-5H-imidazo[4,5-c]pyridin-5-yl)methanone]"
6,< 0.5,"O=C([C@@H]1CC1(F)F)N1CCc2[nH]cnc2[C@H]1c1cc2c(F)cccn2n1 [Example 2030, ((S)-2,2-difluorocyclopropyl) ((S)-4-(4-fluoropyrazolo[1,5-a]pyridin-2-yl)-1,4,6,7-tetrahydro-5H-imidazo[4,5-c]pyridin-5-yl)methanone]"
7,1 to 5,"O=C(c1ocnc1C1CC1)N1CCc2[nH]cnc2[C@@H]1c1cc2c(C(F)F)cccn2n1 [Example 2038, (R)-(4-cyclopropyloxazol-5-yl)(4-(4-(difluoromethyl)pyrazolo [1,5-a]pyridin-2-yl)-1,4,6,7-tetrahydro-5H-imidazo[4,5-c]pyridin-5-yl)methanone]"
8,< 0.5,"O=C(c1ocnc1C1CC1)N1CCc2[nH]cnc2[C@H]1c1cc2c(C(F)F)cccn2n1 [Example 2039, (S)-(4-cyclopropyloxazol-5-yl)(4-(4-(difluoromethyl)pyrazolo [1,5-a]pyridin-2-yl)-1,4,6,7-tetrahydro-5H-imidazo[4,5-c]pyridin-5-yl)methanone]"
9,< 0.5,"O=C(c1ocnc1C1CC1)N1CCc2[nH]cnc2[C@H]1c1cc2c(Cl)cccn2n1 [Example 2040, (S)-(4-(4-chloropyrazolo [1,5-a]pyridin-2-yl)-1,4,6,7-tetrahydro-5H-imidazo [4,5-c]pyridin-5-yl)(4-cyclopropyloxazol-5-yl) methanone]"
10,< 0.5,"O=C(c1nc2ccccc2o1)N1CCc2[nH]cnc2[C@H]1c1cc2c(F)cccn2n1 [Example 2050, (S)-benzo[d]oxazol-2-yl (4-(4-fluoropyrazolo[1,5-a]pyridin-2-yl)-1,4,6,7-tetrahydro-5H-imidazo[4,5-c]pyridin-5-yl)methanone]"
11,> 5,CC(C)(F)c1nnc(C(=O)N2CCc3[nH]cnc3[C@@H]2c2cc3c(C4CC4)cccn3n2)o1 [Example 2060]
12,< 0.5,"CC(C)(F)c1ncc(C(=O)N2CCc3[nH]cnc3[C@H]2c2cc3c(F)cccn3n2)o1 [Example 2064, (S)-(2-(2-fluoropropan-2-yl)oxazol-5-yl)(4-(4-fluoropyrazolo[1,5-a]pyridin-2-yl)-1,4,6,7-tetrahydro-5H-imidazo[4,5-c]pyridin-5-yl)methanone]"
13,> 5,"O=C(C1CCC1)N1CCc2[nH]cnc2[C@@H]1c1cc2c(F)cccn2n1 [Example 2081, (R)-cyclobutyl(4-(4-fluoropyrazolo[1,5-a]pyridin-2-yl)-1,4,6,7-tetrahydro-5H-imidazo[4,5-c]pyridin-5-yl)methanone]"
